The results in this text go back to patent publication US9169241B2, “Quinolinyloxyphenylsulfonamides” (Max-Planck-Gesellschaft Zur Forderung der Wissenschaften …, priority 2009, dated 2015).

Read-outs that look alike come from different tables or passages of the source.

Data set [1] has as its system Hs578T. Put plainly: Cell vitality assay (ATP assay, CellTiter-Glo). In kind it is cell-based. The following applies: Homo sapiens, Hs-578T, 72 h. In a few lines: (§1)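 Viability is estimated from cellular ATP after 72 h of compound treatment at 1000 cells per well. The dilution series runs 12.5, 6.25, 3.125, 1.56, 0.78, 0.39 and 0.195 μM. Half-maximal values are expressed against DMSO-treated wells.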

In data set [2] the test system is SF126. Put plainly: Cell vitality assay (ATP assay, CellTiter-Glo). In kind it is cell-based. The following applies: Homo sapiens, SF-126. Put shortly: as §1
Data set [3] relates to U118. Nature of the data set: Cell vitality assay (ATP assay, CellTiter-Glo). In kind it is cell-based. Put shortly:
as §1

Data set [4] concerns Hs578T. Put plainly: Wound healing migration assay. Particulars: Homo sapiens, Hs-578T; HS578T cell line; Table Ib. The class given is cell-based. In a few lines: (§2)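 Compound exposure at 12.5, 6.25 and 3.125 μM, with DMSO control, on scratch-wounded monolayers (150000 cells/24 well, overnight). Wound closure imaged by microscopy, fixed with crystal violet after 48 h or 72 h depending on cell line; IC50 is the concentration giving 50% wound size between t0 and t48/t72.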

The test system of the next data set is indicated cell line. Put plainly: Wound healing migration assay (Table IV). In kind it is cell-based. Particulars: compounds at 12.5, 6.25, 3.125 μM, 48 h-72 h. Put shortly:
as §2

For another data set, the system named is A172. Nature of the data set: Matrigel outgrowth assay/branching assay. In kind it is cell-based. The following applies: Homo sapiens, A 172, Table Vb, read-out: Total branching inhibition in Matrigel A172. Put shortly:
(§3)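 Matrigel 3 mg/ml, polymerized 1 h 37° C; 5000 cells/well + cmpd 3.125/1.56/0.78 μM or DMSO. Imaged 48/72/96 h, 5× objective. Positive = total branching block.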

The test system of data set [5] is Hs578T. Nature of the data set: Matrigel outgrowth assay/branching assay. The class given is cell-based. Particulars: Homo sapiens, Hs-578T; HS578T cell line; Table Ib; read-out: Total branching inhibition in Matrigel HS578T. In a few lines:
as §3

The subject of data set [6] is SF126. Nature of the data set: Matrigel outgrowth assay/branching assay. The class given is cell-based. Particulars: Homo sapiens, SF-126, Table Vb, read-out: Total branching inhibition in Matrigel SF126. Put shortly: as §3
Data set [7] deals with U118. Put plainly: Matrigel outgrowth assay/branching assay. The class given is cell-based. Particulars: Table Vb, read-out: Total branching inhibition in Matrigel U118. In a few lines:
as §3

The subject of another data set is tumor cell. Put plainly: Matrigel outgrowth assay/branching assay (Table Va). In kind it is cell-based. In a few lines:
as §3

Where [8] appears, read: HS578T cell line, Table Ib, read-out: IC50 ATP-Assay HS578T after 72 h.
The mark [9] stands for this setting: SF126, 72 h, Table IIa, read-out: IC50 ATP-Assay after 72 h SF126.
Setting [10] is: U118, 72 h, Table IIa, read-out: IC50 ATP-Assay after 72 h U118.
Setting [11] is: Homo sapiens, A 172, A172 cells, read-out: IC50 Wound healing Assay A172.
[12] abbreviates: Homo sapiens, SF-126, SF126 cells, read-out: IC50 Wound healing Assay SF126.
Setting [13] is: U118 cells, read-out: IC50 Wound healing Assay U118.
Where [14] appears, read: Homo sapiens, C8161 cells, read-out: Total branching inhibition in Matrigel C8161.
Setting [15] is: Homo sapiens, Hs-578T, Hs578T cells, read-out: Total branching inhibition in Matrigel Hs578T.
[16] abbreviates: U118 cells, read-out: Total branching inhibition in Matrigel U118.
[17] abbreviates: U138 cells, read-out: Total branching inhibition in Matrigel U138.
The mark [18] stands for this setting: Hs578T, Table IIa, read-out: IC50 ATP-Assay after 72 h Hs578T.
[19] abbreviates: Homo sapiens, C8161 cells, read-out: IC50 Wound healing Assay C8161.
The mark [20] stands for this setting: SF763 cells, read-out: IC50 Wound healing Assay SF763.

In the case of `COC(=O)c1sccc1S(=O)(=O)Nc1ccc(Oc2ccnc3cc(OCCCN4CCCC(C)C4)c(OC)cc23)c(F)c1` (stereo not drawn) [Example 66, 3-(3-Fluoro-4-{6-methoxy-7-[3-(3-methyl-piperidin-1-yl)-propoxy]-quinolin-4-yloxy}-phenylsulfamoyl)-thiophene-2-carboxylic acid methyl ester], the melting point lay within 132 to 134 °C. Also, the IC50 in the data set with Hs578T [1] (setting [8]) is at most 12.5 µM. Further, the IC50 in the data set with SF126 [2] (setting [9]) was at most 12.5 µM. Moreover, the IC50 in the data set with SF126 [2] (cell vitality assay, SF126, Table IIb, read-out: IC50 SF126) is at most 12.5 µM. Further, the IC50 in the data set on U118 [3] (setting [10]) is at most 12.5 µM. Further, in the data set on U118 [3] (cell vitality assay, U118, Table IIc, read-out: IC50 U118), the IC50 was at most 12.5 µM. The compound also registered an IC50 in the data set with Hs578T [4] of at most 12.5 µM. Besides, the IC50 in the data set with indicated cell line (setting [11]) is at most 12.5 µM. Further, the IC50 in the data set on indicated cell line (setting [12]) was at most 12.5 µM. The IC50 in the data set with indicated cell line (setting [13]) was at most 12.5 µM. In addition, the IC100 with A172 was over 12.5 µM. The IC50 in the data set with Hs578T [5] fell in the range of 10 to 25 µM. Further, in the data set with SF126 [6], the IC100 is at most 12.5 µM. In the data set with U118 [7], the IC100 was at most 12.5 µM. For the same compound, the IC50 in the data set with tumor cell (setting [14]) was at most 5 µM. Moreover, the IC50 with tumor cell (setting [15]) is at most 5 µM. Further, in the data set on tumor cell (setting [16]), the IC50 was at most 5 µM. In addition, in the data set on tumor cell (setting [17]), the IC50 fell in the range of 5 to 50 µM.
`COc1cc2c(Oc3ccc(NS(=O)(=O)c4c(F)cccc4F)cc3F)ccnc2cc1OCCCN1CCOCC1` [Example 77, 2,6-Difluoro-N-{3-fluoro-4-[6-methoxy-7-(3-morpholin-4-yl-propoxy)-quinolin-4-yloxy]-phenyl}-benzenesulfonamide] gave a melting point of 190 to 192 °C. Moreover, the IC50 in the data set on Hs578T [1] (setting [8]) was at most 12.5 µM. In the data set on Hs578T [1] (setting [18]), the IC50 was at most 12.5 µM. Also, in the data set on SF126 [2] (setting [9]), the IC50 lay in the range of 12.5 to 50 µM. In addition, the IC50 in the data set on U118 [3] (setting [10]) is at most 12.5 µM. Also, in the data set with Hs578T [4], the IC50 was at most 12.5 µM. In addition, the IC50 in the data set on indicated cell line (setting [11]) was at most 12.5 µM. In the data set with indicated cell line (setting [12]), the IC50 was at most 12.5 µM. Further, the IC50 in the data set with indicated cell line (setting [19]) is at most 12.5 µM. The IC50 in the data set with indicated cell line (setting [20]) is at most 12.5 µM. The IC50 in the data set with indicated cell line (setting [13]) is at most 12.5 µM. For the same compound, the IC100 with A172 is over 12.5 µM. Besides, the IC50 in the data set with Hs578T [5] was at most 10 µM. The IC100 in the data set on SF126 [6] is at most 12.5 µM. In addition, the IC100 in the data set with U118 [7] is at most 12.5 µM. In addition, the IC50 in the data set with tumor cell (setting [14]) was 5 to 50 µM. For the same compound, in the data set on tumor cell (setting [15]), the IC50 is at most 5 µM. The IC50 in the data set on tumor cell (setting [16]) was at most 5 µM. For the same compound, the IC50 in the data set with tumor cell (setting [17]) was 5 to 50 µM.
Compound `COc1cc2c(Oc3ccc(NS(=O)(=O)c4ccccc4C(F)(F)F)cc3Cl)ccnc2cc1OCCCN1CCN(C)CC1` [Example 87, N-(3-Chloro-4-{6-methoxy-7-[3-(4-methyl-piperazin-1-yl)-propoxy]-quinolin-4-yloxy}-phenyl)-2-trifluoromethyl-benzenesulfonamide] displayed a melting point of 103 to 105 °C. The IC50 in the data set with Hs578T [1] (setting [8]) fell in the range of 12.5 to 50 µM. Moreover, in the data set on Hs578T [1] (setting [18]), the IC50 was 12.5 to 50 µM. In the data set on SF126 [2] (setting [9]), the IC50 is at most 12.5 µM. For the same compound, in the data set on U118 [3] (setting [10]), the IC50 is at most 12.5 µM. The compound also had an IC50 in the data set with Hs578T [4] of at most 12.5 µM. In addition, the IC50 in the data set with indicated cell line (setting [11]) was at most 12.5 µM. The IC50 in the data set on indicated cell line (setting [12]) was at most 12.5 µM. Also, the IC50 in the data set with indicated cell line (setting [19]) lay within 12.5 to 50 µM. Also, in the data set on indicated cell line (setting [20]), the IC50 was at most 12.5 µM. For the same compound, the IC50 in the data set with indicated cell line (setting [13]) is at most 12.5 µM. Further, the IC100 in the data set with A172 is at most 12.5 µM. In addition, the IC50 in the data set with Hs578T [5] was at most 10 µM. The IC100 in the data set on SF126 [6] was at most 12.5 µM. For the same compound, the IC100 with U118 [7] was at most 12.5 µM. The IC50 in the data set with tumor cell (setting [14]) was at most 5 µM. In addition, the IC50 with tumor cell (setting [15]) was at most 5 µM. Further, in the data set on tumor cell (setting [16]), the IC50 was at most 5 µM. For the same compound, the IC50 in the data set with tumor cell (setting [17]) fell in the range of 5 to 50 µM.
In turn, `COc1cc2c(Oc3ccc(NS(=O)(=O)c4ccccc4C(F)(F)F)cc3F)ccnc2cc1OCCCN1CCCCC1C` (stereo not drawn) [Example 99, N-(3-Fluoro-4-{6-methoxy-7-[3-(2-methyl-piperidin-1-yl)-propoxy]-quinolin-4-yloxy}-phenyl)-2-trifluoromethyl-benzenesulfonamide] yielded a melting point of 115 to 116 °C. Moreover, the IC50 in the data set with Hs578T [1] (setting [8]) was at most 12.5 µM. Besides, the IC50 in the data set on Hs578T [1] (setting [18]) is at most 12.5 µM. In addition, the IC50 in the data set with SF126 [2] (setting [9]) was at most 12.5 µM. In addition, the IC50 with U118 [3] (setting [10]) is at most 12.5 µM. The compound further gave an IC50 in the data set with Hs578T [4] of at most 12.5 µM. The IC50 with indicated cell line (setting [11]) was at most 12.5 µM. Besides, the IC50 in the data set with indicated cell line (setting [12]) was at most 12.5 µM. Also, the IC50 in the data set on indicated cell line (setting [19]) lay within 12.5 to 50 µM. For the same compound, the IC50 with indicated cell line (setting [20]) is at most 12.5 µM. Also, the IC50 in the data set on indicated cell line (setting [13]) was at most 12.5 µM. Further, the IC100 in the data set on A172 is over 12.5 µM. The IC50 in the data set with Hs578T [5] was at most 10 µM. Also, the IC100 in the data set on SF126 [6] was at most 12.5 µM. In the data set with U118 [7], the IC100 is at most 12.5 µM. The IC50 in the data set on tumor cell (setting [14]) is 5 to 50 µM. The IC50 in the data set with tumor cell (setting [15]) is at most 5 µM. Moreover, in the data set with tumor cell (setting [16]), the IC50 was at most 5 µM. In addition, in the data set with tumor cell (setting [17]), the IC50 was at most 5 µM.
On to `COc1cc2c(Oc3ccc(NS(=O)(=O)c4ccccc4C(F)(F)F)cc3F)ccnc2cc1OCCCN(C)C` [Example 100, N-{4-[7-(3-Dimethylamino-propoxy)-6-methoxy-quinolin-4-yloxy]-3-fluoro-phenyl}-2-trifluoromethyl-benzenesulfonamide], for which the melting point lay in the range of 89 to 91 °C. Moreover, in the data set on Hs578T [1] (setting [8]), the IC50 was at most 12.5 µM. Moreover, in the data set on SF126 [2] (setting [9]), the IC50 was at most 12.5 µM. Besides, in the data set on U118 [3] (setting [10]), the IC50 is at most 12.5 µM. This compound also registered an IC50 with Hs578T [4] of at most 12.5 µM. Besides, the IC50 with indicated cell line (setting [11]) was at most 12.5 µM. For the same compound, the IC50 with indicated cell line (setting [12]) is at most 12.5 µM. Further, the IC50 with indicated cell line (setting [19]) lay in the range of 12.5 to 50 µM. Further, the IC50 with indicated cell line (setting [20]) was at most 12.5 µM. Moreover, the IC50 in the data set with indicated cell line (setting [13]) is at most 12.5 µM. In addition, the IC100 with A172 was over 12.5 µM. The IC50 in the data set with Hs578T [5] was at most 10 µM. In addition, in the data set on SF126 [6], the IC100 was at most 12.5 µM. The IC100 in the data set on U118 [7] is at most 12.5 µM. In the data set with tumor cell (setting [14]), the IC50 is at most 5 µM. Besides, the IC50 with tumor cell (setting [15]) is at most 5 µM. Moreover, the IC50 in the data set on tumor cell (setting [16]) was at most 5 µM. The IC50 in the data set with tumor cell (setting [17]) was 5 to 50 µM.
